Laboratory results reported in US20150004106A1, “ACNE treatment method” (priority 2013, published 2015).

Assays:
acne = test: case study of topical beta-sitosterol treatment of acne; type: in vivo; conditions: for reduction in acne: end of study, after four weeks of application; for mean reduction in acne: first week
Text: This vehicle containing the beta-sitosterol is applied to the sites of the subcutaneous gland disorders on a twice daily basis (morning and evening).
FIG. 4 is a table indicating the results found in a case study.
The study used a cross section of the population having a distribution of sexes, ages, and areas being affected.
At the end of the study, after four weeks of application, the women found a fifty percent reduction with the men showing a forty-five percent reduction.

[1] = alcohols; cited from earlier work

For `CCC(CCC(C)C1CCC2C3CC=C4CC(O)CCC4(C)C3CCC12C)C(C)C` (stereo not drawn) [beta-sitosterol, 17-(5-Ethyl-6-methylheptan-2-yl)-10-13-dimethyl-2,3,4,7,8,9,11,12,14,16,17-deodeccahydrom-1H-cyclopental(alpha)phenanthren-3-ol], the “change of acne in the affected areas” value (acne; all cases, start of use) was “immediate reduction in the acne”, the “change of acne with continuous use” value (acne; all of the subjects, continuous use) was “further reductions in acne” and the reduction in acne (acne; men) was “forty-five”. For the same compound, the “mean reduction in acne” value (acne; men) was 10%, the reduction in acne (acne; women) was “fifty” and the “mean reduction in acne” value (acne; women) was 10%. The solubility [1] was “hydrophobic and soluble in alcohols”.
